Source: patent US20110124647A1, “INSECTICIDAL DERIVATIVES OF SUBSTITUTED BENZYLAMINES” (priority 2007, published 2011)

Key:
[1] = tested on: green peach aphid (Myzus persicae); assay: Myzus test (MYZUPE), spray treatment; assay type: in vivo; conditions: 20 g/ha
Experimental: [table] To produce a suitable preparation of active compound, 1 part by weight of active compound is mixed with the stated amounts of solvent and emulsifier, and the concentrate is diluted with emulsifier-containing water to the desired concentration. Disks of Chinese cabbage (Brassica pekinensis) which are infested with all stages of the green peach aphid (Myzus persicae) are sprayed with a preparation of active compound of the desired concentration. After the desired period of time, the effect in % is determined. 100% means that all aphids have been killed; 0% means that none of the aphids have been killed. [table] To produce a suitable preparation of active compound, 1 part by weight of active compound is mixed with the stated amounts of solvent and emulsifier, and the concentrate is diluted with emulsifier-containing water to the desired concentration. Disks of Chinese cabbage (Brassica pekinensis) which are infested with all stages of the green peach aphid (Myzus persicae) are sprayed with a preparation of active compound of the desired concentration. After the desired period of time, the effect in % is determined. 100% means that all aphids have been killed; 0% means that none of the aphids have been killed.

[2] = tested on: greenhouse red spider mite (Tetranychus urticae); assay: Tetranychus test, OP-resistant (TETRUR), spray treatment; assay type: in vivo; conditions: 100 g/ha
Experimental: To produce a suitable preparation of active compound, 1 part by weight of active compound is mixed with the stated amounts of solvents and emulsifier, and the concentrate is diluted with emulsifier-containing water to the desired concentration.
Discs of bean leaves (Phaseolus vulgaris) which are infested by all stages of the greenhouse red spider mite (Tetranychus urticae) are sprayed with a preparation of active compound of the desired concentration.
After the desired period of time, the effect in % is determined. 100% means that all spider mites have been killed; 0% means that none of the spider mites have been killed.

**Q.** For CC(NC(=O)NCCCl)c1ccccc1Cl (stereo not drawn) [1-(2-chloroethyl)-3-[1-(2-chlorophenyl)ethyl]urea], which logP (Log P) is on record?
**A.** 2.3

**Q.** Which logP (Log P) does the source give for C[C@H](NC(=O)NCCCl)c1ccccc1 [1-(2-chloroethyl)-3-[(1S)-1-phenylethyl]urea] here?
**A.** 1.76

**Q.** Which “1. MYZUPE spray appl. % 6 d” value [1] does the source give for COCCNC(=S)N1CCOC1=NC(C)c1ccccc1 (stereo not drawn) [Compound 2] here?
**A.** 100%

**Q.** What about the “2. TETRUR spray appl. % 6 d” value [2] of the same molecule?
**A.** 90%

**Q.** For CC(N=C1OCCN1C(=S)NCC(F)(F)F)c1ccccc1 (stereo not drawn) [Compound 3], which “1. MYZUPE spray appl. % 6 d” value [1] is on record?
**A.** 100%

**Q.** And the “2. TETRUR spray appl. % 6 d” value [2]?
**A.** 70%

**Q.** With COCCNC(=S)N1CCO/C1=N\C(C)c1ccccc1Cl (stereo not drawn) [Compound 10, (2Z)-2-{[1-(2-chlorophenyl)ethyl]imino}-N-(2-methoxyethyl)-1,3-oxazolidine-3-carbothioamide] as the molecule, how does the logP (Log P) read?
**A.** 4.08

**Q.** With C[C@H](/N=C1\OCCN1C(=S)NCC#N)c1ccccc1 [Compound 94, (2Z)—N-(cyanomethyl)-2-[(1-phenylethyl)imino]-1,3-oxazolidine-3-carbothioamide] as the molecule, how does the logP (Log P) read?
**A.** 3.07

**Q.** With CCC(N=C1OCCN1C(=S)NCc1ccccc1)c1ccccc1 (stereo not drawn) [compound 68] as the molecule, how does the “log P (acidic)” value (Log P; acidic, Phys. Data cells marked (C)) read?
**A.** 4.68 (C)
